Consider one compound from patent US11186581B2, “2-(1,3-dimethyl-2,6-dioxo-1,2,3,6-tetrahydro-7H-purin-7-yl)-N-(6-(2-hydroxyphenyl)pyridazin-3-yl)acetamide as a Wnt pathway modulator” (Agency for Science, Technology and Research, priority 2017, dated 2021).

The nature of data set [1]: Clinical observations after intravenous and oral dose administration. The data set is classed as in vivo, male BALB/c mice. The conditions noted are these: after IV 1 mg/kg and PO 5 mg/kg single dose. The method, then: A group of eighteen male mice were divided in to two groups as Group 1 and Group 2 with nine mice in each group. Animals in Group 1 were administered intravenously with Compound 1 solution formulation in 7.5% NMP, 5% Solutol HS-15 and 87.5% normal Saline at a dose of 1 mg/kg. Animals in Group 2 were administered orally with Compound 1 solution formulation in 7.5% NMP, 5% Solutol HS and 87.5% normal Saline at a dose of 5 mg/kg.

The test system of data set [2] is HEK293-STF3A cells. The data set is described as follows: STF3A assay (Wnt reporter luciferase). The class given is cell-based. The conditions noted are these: Homo sapiens, 24 h, 1 day of treatment, read-out: IC50 activities on STF3A cells. Here is the method: HEK293-STF cell line was modified from Human embryonic kidney cell line HEK293 transfected with the STF reporter. HEK293-STF3 A cell line was further modified from HEK293-STF cell line to express Wnt3A. This cell line was used to identify compounds that regulate either early or late signalling components of the Wnt pathway. L-Wnt3 A (ATCC, #CRL-2647) cell line was used for providing Wnt3 A conditioned media. The three cell lines were grown in DMEM (Dulbecco's Modified Eagle Medium) with 10% FBS (fetal bovine serum) incubated in 37° C. with 5% CO2.
2×10^4 HEK293-STF3A cells in 75 μl culture media were seeded in each well of white 96 well plates (Greiner #655098) and incubated overnight at 37° C. 25 μl serially diluted compound was added to the cells to give final concentration of 50 μM to 1.5 nM. After 1 day of treatment, 100 μl of Steady-Glo® Luciferase Assay reagent (#E2520, Promega) was added to each well and incubated for 10 minutes at room temperature. Luminescence was measured using Tecan Safire2® plate reader.

Consider `Cn1c(=O)c2c(ncn2CC(=O)Nc2ccc(-c3ccccc3O)nn2)n(C)c1=O` [Compound 1, 2-(1,3-dimethyl-2,6-dioxo-1,2,3,6-tetrahydro-7H-purin-7-yl)-N-(6-(2-hydroxyphenyl)pyridazin-3-yl)acetamide], for which the Clinical signs entry in data set [1] is “normal and without any clinical signs”. In data set [2], the IC50 (in general, the concentration at which inhibition is half-maximal) stood at 9 nM.
